Data as given in ChEMBL document CHEMBL1134483, “Quinazolin-4-one alpha-amino-3-hydroxy-5-methyl-4-isoxazolepropionic acid (AMPA) receptor antagonists: structure-activity relationship of the C-2 side chain tether” (J Med Chem, 2001).

What follows are compounds tested against Glutamate receptor ionotropic, AMPA (Rattus norvegicus, UniProt P19490+P19491+P19492+P19493) (assay: Inhibition of Ca 2+ Influx in cultured rat cerebellar granule cells, mediated by ionotropic glutamate receptor AMPA).
Assay type: functional

SMILES | IC50 [nM]
O=c1c2cc(F)ccc2nc(CNc2ccccc2F)n1-c1ccccc1Cl | 13
O=c1c2cc(F)ccc2nc(CC(O)c2ccccc2F)n1-c1ccccc1Cl (stereo in doubt; 3a) | 240
CC(=O)N(Cc1nc2ccc(F)cc2c(=O)n1-c1ccccc1Cl)c1ccccc1F | > 3000
O=c1c2cc(F)ccc2nc(CNCc2ccccc2F)n1-c1ccccc1Cl | > 300
Cc1cccc(NCc2nc3ccc(F)cc3c(=O)n2-c2ccccc2Cl)c1 | 213
CN(Cc1nc2ccc(F)cc2c(=O)n1-c1ccccc1Cl)c1ccccc1F | 2000
O=c1c2cc(F)ccc2nc(COc2ccccc2F)n1-c1ccccc1Cl | > 10000
O=c1c2cc(F)ccc2nc(/C(O)=C/c2ccccc2F)n1-c1ccccc1Cl | > 30000
N#Cc1ccccc1NCc1nc2ccc(F)cc2c(=O)n1-c1ccccc1Cl | 42
O=c1c2cc(F)ccc2nc(CC(O)c2ccccc2F)n1-c1ccccc1Cl (stereo in doubt; 3b) | > 3000
